This is an account of results in PubChem BioAssay AID1996.

Converted amounts (≈) assume the structure as drawn. A value given as a limit tells only on which side of the number the result lay.

For the series the following is noted: buffer; pH 7.4; 200.0 µM.
On to `Cc1ccccc1S(=O)(=O)NCC1CCCO1` (centres undefined), for which the kinetic solubility (in general, the concentration staying in solution when a stock, usually in DMSO, is diluted into the medium) worked out at 27.1 µg/mL (≈ 106 µM). The compound `Cc1ccc(/C=C2\C(=O)NC(=O)N(CC3CCCO3)C2=O)s1` (centres undefined) displayed a kinetic solubility of over 48.1 µg/mL. As to `COc1ccc(-c2nc(N)ncc2-c2ccc(OC)c(OC)c2)c(O)c1`, the solubility (kinetic) is 1 µg/mL (≈ 2.83 µM). The result for `CCCN1CNC(=S)N(c2ccc(C)cc2C)C1` reads over 39.5 µg/mL; that for `O=C(Nc1ccc(F)cc1F)NC1CCCc2ccccc21` (centres undefined), 0.3 µg/mL (≈ 0.992 µM). In the case of `Cc1noc(C)c1S(=O)(=O)N1CCC(C(=O)c2ccccc2)CC1` it was 30 µg/mL (≈ 86.1 µM). Compound `Cc1cc(CNC(=O)Cc2ccc(F)cc2)c2ccccc2n1` yielded a kinetic solubility of over 46.3 µg/mL. As for `O=C(COC(=O)c1ccc([N+](=O)[O-])cc1)NC12CC3CC(CC(C3)C1)C2`, the kinetic solubility is 3.3 µg/mL (≈ 9.21 µM).

The compound `O=C(Nc1sc2c(c1C(=O)NCCCO)CCCC2)c1ccccc1` gave a kinetic solubility of 1.6 µg/mL (≈ 4.46 µM).

In turn, `O=C(CCc1nc(-c2ccc(F)cc2)no1)NCc1ccccc1CN1CCOCC1` registered a kinetic solubility of over 63.7 µg/mL. `O=C(NCC1CCCO1)c1ccc2[nH]c3c(c2c1)CCCC3` (centres undefined) came in with a kinetic solubility of over 44.8 µg/mL. With `O=C(COC(=O)CCSc1ccccc1)Nc1ccccc1`, the solubility (kinetic) is 41.6 µg/mL (≈ 132 µM). With `O=C(Oc1c(-c2ccccc2)c(=O)n2c3c(cccc13)CC2)c1ccco1`, the kinetic solubility is 32.6 µg/mL (≈ 91.2 µM).

For the compound `CCN(CC)S(=O)(=O)c1c(OC)cc(C)c(Cl)c1C`, the solubility (kinetic) was determined as 18.3 µg/mL (≈ 59.8 µM). Consider `CCOC(=O)Nc1ccc2c(c1)N(C(=O)CN(C)C)c1ccccc1CC2.Cl`, for which the kinetic solubility came out at 57.7 µg/mL.

Compound `Cc1ccnc(NS(=O)(=O)c2ccccc2)c1` showed a solubility (kinetic) of 31.3 µg/mL (≈ 126 µM).

Take `O=C(c1cc(Cl)ccc1OCc1ccccc1)N1CCOCC1`: the kinetic solubility is over 49.8 µg/mL. In turn, `CC1CN(S(=O)(=O)c2cccc(C(=O)OCC(=O)N3CCCCCC3)c2)CC(C)O1` (centres undefined) yielded a kinetic solubility of 12.9 µg/mL (≈ 29.4 µM). As to `CN(c1ccccc1)S(=O)(=O)c1ccc2c(c1)OCCO2`, the kinetic solubility was determined as 43.2 µg/mL (≈ 141 µM). The compound `CCC(NC(=O)Cc1cccs1)c1ccccc1` (centres undefined) gave a solubility (kinetic) of over 38.9 µg/mL. In the case of `COc1ccc(C(OC(=O)c2ccco2)C(=O)NC(C)(C)C)cc1` (centres undefined), the solubility (kinetic) is over 49.7 µg/mL. `COC(=O)c1ccc(C(=O)OC)c(NC(=O)C2CCCO2)c1` (centres undefined) returned a solubility (kinetic) of 45.3 µg/mL (≈ 147 µM).

Take `COP(=O)(c1ccc(N(C)C)cc1)C(O)c1ccccc1` (centres undefined): the kinetic solubility was over 45.8 µg/mL. In the case of `CCOC(=O)C1CCN(S(=O)(=O)c2c(Cl)ccc3nonc23)CC1`, the solubility (kinetic) is over 56.1 µg/mL. The result for `COC(=O)c1c(-c2c(Cl)cccc2Cl)noc1NC(=O)N(C)C` reads 49.3 µg/mL (≈ 138 µM).

The compound `COc1cc(CN2CCc3ccccc3C2)cc([N+](=O)[O-])c1O` showed a solubility (kinetic) of 42.1 µg/mL (≈ 134 µM).

As to `O=c1[nH]c2ccccc2nc1CCc1ccccc1`, the kinetic solubility amounted to 1.4 µg/mL (≈ 5.59 µM). In the case of `CCn1c(SCC(=O)Nc2nccs2)nnc1C1CC1` it was over 46.4 µg/mL; in that of `O=C(NCc1ccncc1)C(=O)Nc1nccs1`, over 39.3 µg/mL. Turning to `CC(C)N1CN(c2ccccc2)C(=S)N(c2ccccc2)C1`, the kinetic solubility was over 46.7 µg/mL. In turn, `CN1CCN(C(=O)c2ccccc2NC(=O)c2ccccc2)CC1` gave a solubility (kinetic) of over 48.5 µg/mL. Regarding `CC(C)c1ccc(NC2CCCN(C(=O)c3ccncc3)C2)cc1` (centres undefined), the solubility (kinetic) was 47.1 µg/mL (≈ 146 µM). The compound `CC(=O)Nc1ccc(NC(=O)c2ccccc2Nc2ccccc2)cc1` came in with a solubility (kinetic) of 4.4 µg/mL (≈ 12.7 µM).

Compound `O=[N+]([O-])c1ccc(-c2nc(-c3ccncc3)no2)cc1` yielded a solubility (kinetic) of 1.3 µg/mL (≈ 4.85 µM). `COc1cc(/C=C(\C#N)C(=O)Nc2ccccn2)ccc1O` had a kinetic solubility of 5.9 µg/mL (≈ 20 µM). The result for `Cl.c1csc(CNCc2ccncc2)c1` reads over 36.1 µg/mL; that for `COc1ccc(C(=O)N(C)Cc2ccccc2F)cc1S(=O)(=O)N1CCCC1`, over 61 µg/mL; that for `CCNC(=O)c1ccccc1NC(=O)C1CC(=O)N(C(C)C)C1` (centres undefined), over 47.6 µg/mL. For `Cn1ccc(/C=N/N=C2/NC(=O)CS2)n1`, the kinetic solubility was over 33.5 µg/mL. `CCc1cc(C(=O)N2CCN(c3ccccn3)CC2)sc1C`: the solubility (kinetic) stood at 43 µg/mL (≈ 136 µM). For `CCc1ccc2nc(NC(=O)CN3C(=O)NC4(CCCC4)C3=O)sc2c1`, the kinetic solubility amounted to 2.6 µg/mL (≈ 6.98 µM). Regarding `O=C(NCc1nc(-c2ccc(C(F)(F)F)cc2)no1)Nc1ccc(F)cc1F`, the solubility (kinetic) came out at 1.1 µg/mL (≈ 2.76 µM). In the case of `N#Cc1c(N2CCSCC2)nsc1-c1ccccc1Cl` it was 3.4 µg/mL (≈ 10.6 µM); in that of `O=C(CCCCCCC(=O)NCc1ccccc1)NCc1ccccc1`, 1.4 µg/mL (≈ 3.97 µM); in that of `CC(=O)Nc1cc([As](=O)(O)O)ccc1O`, over 41.3 µg/mL. In turn, `COc1ccccc1CNC(=O)COc1ccc(C)cc1` registered a kinetic solubility of 26.2 µg/mL (≈ 91.8 µM). In turn, `CC(=O)C1=C(O)C(=O)N(c2ccccn2)C1c1ccccc1[N+](=O)[O-]` (centres undefined) had a solubility (kinetic) of over 50.9 µg/mL. Take `Cc1cc(C)c(C(=O)/C=C/c2cccs2)c(=O)[nH]1`: the kinetic solubility is 34.4 µg/mL (≈ 133 µM).

`O=C(O)CC1(CC(=O)NCc2cc(F)cc3c2OCOC3)CCCCC1` yielded a solubility (kinetic) of over 54.8 µg/mL. Turning to `NC(=O)c1ccsc1NC(=O)COC(=O)CCOc1ccccc1`, the solubility (kinetic) turned out to be 16.9 µg/mL (≈ 48.5 µM). In turn, `Cl.O=[N+]([O-])c1cc(CN(CCO)CCO)ccc1O` yielded a solubility (kinetic) of over 43.9 µg/mL. `O=C(NCCCCCCNC(=O)c1ccccc1O)c1ccccc1O`: the solubility (kinetic) is 1.2 µg/mL (≈ 3.37 µM). In the case of `COC(=O)c1ccc2nccnc2c1`, the solubility (kinetic) was found to be 22.7 µg/mL (≈ 121 µM). The result for `COc1ccccc1NC(=O)c1ccccc1NC(=O)c1ccccc1C(=O)O` reads over 58.6 µg/mL; that for `Cc1cc(C)nc(/N=C(\N)N2CCc3ccccc32)n1`, 37.1 µg/mL (≈ 139 µM); that for `CN1C(=O)N(C)C2(C)CC1(C)N(C)C(=O)N2C`, over 36 µg/mL.

`CCN(CC)c1ccc(NC(=O)c2cc3c(OC)cccc3[nH]2)cc1`: the kinetic solubility is 0.5 µg/mL (≈ 1.48 µM).

In turn, `COc1ccc(NC(=O)CC2(CC(=O)O)CCCC2)cn1` showed a solubility (kinetic) of over 43.9 µg/mL. In turn, `CCN1C(=O)CSC1=Nc1ccc(Cl)c(Cl)c1` yielded a solubility (kinetic) of 9.8 µg/mL (≈ 33.9 µM).

`CC1(C)Cc2nc3sc4c(SCC(=O)O)ncnc4c3cc2CO1` came in with a solubility (kinetic) of 53.2 µg/mL (≈ 147 µM). For the compound `CCOC(=O)CN1C(=N)N(c2nc(NC(C)C)nc(OC)n2)CC1=O`, the kinetic solubility is over 52.7 µg/mL. With `CCc1c(C(=O)Nc2ccc(C)c(C)c2)[nH]c(C)c1C(C)=O`, the solubility (kinetic) was determined as 3 µg/mL (≈ 10.1 µM). In the case of `CC(C)CCOc1cccc(OCC(=O)Nc2ccncc2)c1`, the solubility (kinetic) amounted to 27.7 µg/mL (≈ 88.1 µM). For `Cc1cccnc1Nc1nc(-c2ccc(F)cc2)cs1`, the kinetic solubility was determined as 0.3 µg/mL (≈ 1.05 µM). As to `Cc1csc2c(N(C)CCO)ncnc12`, the solubility (kinetic) is over 33.5 µg/mL.

Turning to `COc1ccc(N2CCN(c3cc(C)c4cccc(C)c4n3)CC2)cc1`, the kinetic solubility is under 0.2 µg/mL. For `CCC1(c2ccccc2)NC(=O)N(CC(=O)N(c2ccccc2)C2CCS(=O)(=O)C2)C1=O` (centres undefined), the kinetic solubility is 38 µg/mL (≈ 83.4 µM). On to `Cl.OC(c1ccc(Cl)cc1)c1nccc2ccccc12` (centres undefined), for which the solubility (kinetic) turned out to be 31.1 µg/mL.

As to `CC(=O)N1c2ccccc2C2(C)C(C1(C)C)C2(Cl)Cl` (centres undefined), the kinetic solubility came out at 6.1 µg/mL (≈ 20.5 µM).

Take `CC(Oc1ccc(Br)cc1Br)C(=O)Nc1cccnc1` (centres undefined): the solubility (kinetic) turned out to be 7.2 µg/mL (≈ 18 µM). `CCOC(=O)c1cnc(Nc2ccccc2)nc1C(F)(F)F` registered a kinetic solubility of 2.1 µg/mL (≈ 6.75 µM). `Cc1nc2cc(NS(=O)(=O)c3ccccc3F)ccc2s1` yielded a kinetic solubility of 35.6 µg/mL (≈ 110 µM). Take `CN(C)C(CNC(=O)c1cc(S(=O)(=O)N2CCOCC2)ccc1F)c1cccs1` (centres undefined): the kinetic solubility was over 66.2 µg/mL.

Turning to `Cc1ccc(SCC(=O)Nc2cccc(C)c2)cc1`, the solubility (kinetic) was 0.8 µg/mL (≈ 2.95 µM).

Compound `OCCC1CN(Cc2ccsc2)CCN1C1CCCC1` (centres undefined) had a kinetic solubility of over 44.2 µg/mL. The result for `COc1ccc(NC(=O)c2ccc(N3CCOCC3)nc2)cc1` reads 6.3 µg/mL (≈ 20.1 µM); that for `CN(CC(=O)Nc1ccccc1F)Cc1cccs1`, 30.1 µg/mL (≈ 108 µM); that for `O=C(COC(=O)C1=COCCO1)Nc1ccc(Cl)cn1`, over 44.8 µg/mL. Compound `COc1ccc(NC(=O)CCC(=O)c2cccs2)cc1Cl` displayed a kinetic solubility of 6.5 µg/mL (≈ 20.1 µM). With `Cc1nc([N+](=O)[O-])cn1CCC#N`, the solubility (kinetic) was over 27 µg/mL. Regarding `CC1(C)Cc2nc3sc4c(NCCO)ncnc4c3cc2CS1`, the kinetic solubility was over 52 µg/mL.

`Cn1ncc(Br)c1C(=O)N1CCCCCC1` had a solubility (kinetic) of over 42.9 µg/mL.

Compound `CCCc1cnc(N2CCN(C(=O)c3ccc(F)cc3)CC2)nc1` displayed a kinetic solubility of over 49.3 µg/mL. Regarding `CC(=O)Nc1nc(C)c(C(C)C)s1`, the kinetic solubility is over 29.7 µg/mL. For the compound `CCCNC(=S)N1CCC(NC(=O)c2ccc(OC)cc2)CC1`, the kinetic solubility is 20.3 µg/mL (≈ 60.5 µM). The compound `CCCCc1nc2cc(C(=O)N3CCC[C@H]3CO)ccc2o1` displayed a kinetic solubility of over 45.4 µg/mL. The result for `CN(C(=S)NCCN1CCOCC1)C(c1ccccc1)c1ccccc1` reads 42.7 µg/mL (≈ 116 µM); that for `O=C(O)C(=O)Nc1nc(-c2ccc3c(c2)OCCO3)cs1`, over 45.9 µg/mL; that for `CCC(C)NC(=O)COc1ccc(OCc2ccccc2)cc1` (centres undefined), 4.8 µg/mL (≈ 15.3 µM). On to `Cc1ccc(C(=O)NCC(=O)Nc2ccc(S(=O)(=O)Nc3cc(C)nc(C)n3)cc2)cc1`, for which the solubility (kinetic) is over 68 µg/mL. In turn, `CC(=O)N=c1sccn1CC(O)c1ccccc1` (centres undefined) displayed a solubility (kinetic) of over 39.3 µg/mL. `O=C(COC(=O)c1ccc(F)c(S(=O)(=O)N2CCOCC2)c1)NCc1ccc2c(c1)OCO2` gave a kinetic solubility of 53.8 µg/mL (≈ 112 µM).

For the compound `C=CCNC1=C(Cl)C(=O)N(Cc2ccccc2)C1=O`, the kinetic solubility was determined as 5.8 µg/mL (≈ 21 µM).

`CCC(=O)Nc1cccc(C(=O)Nc2nccs2)c1` showed a kinetic solubility of over 41.3 µg/mL. In the case of `O=C1NC2=C(C(=O)OC2)C(c2ccc(OC(F)(F)F)cc2)N1` (centres undefined) it was over 47.1 µg/mL; in that of `CC(C)c1ccccc1NC(=O)COC(=O)c1cccnc1`, over 44.8 µg/mL; in that of `NC(=O)c1ccccc1OCCOc1ccc(Br)cc1`, 5.1 µg/mL (≈ 15.2 µM). The result for `CC(=O)NCc1ccc(C(=O)COC(=O)COc2ccc(Cl)c(C)c2)s1` reads 38.6 µg/mL (≈ 97.5 µM); that for `COc1ccccc1OCCCCN1CCC(C)CC1`, 30.7 µg/mL (≈ 111 µM). `O=C(Nc1ccc(F)cc1)c1cccc2ccccc12` had a kinetic solubility of under 0.6 µg/mL. The compound `O=C1CC2(CCN(C(=O)c3ccc(F)c(F)c3)CC2)Oc2ccccc21` had a solubility (kinetic) of over 53.6 µg/mL. The result for `Cl.c1ccc(Cc2ccc(OCCN3CCOCC3)cc2)cc1` reads 42.2 µg/mL; that for `Cc1ccc(C)c(S(=O)(=O)NCCN2CCOCC2)c1.Cl`, over 50.2 µg/mL. In the case of `CCc1ccc(N2C(=O)C3CCCN3C2=S)cc1` (centres undefined) it was 29.4 µg/mL (≈ 113 µM).
